Laboratory results: paper PMC11052077, “Discovery of Dolutegravir Derivative against Liver Cancer via Inducing Autophagy and DNA Damage” (Molecules, 2024)
pIC50: −log10 of the molar value.

Assays:
in vitro = assay type: cell-based, human; settings: human
Method: This study aimed to assess the anti-proliferative activity of dolutegravir-1,2,3-triazole derivatives on hepatocellular carcinoma cell lines, Huh7 and hepG2. A comprehensive CCK8 assay was employed to evaluate the impact of these compounds on cell viability, with cells treated at a concentration of 20 μM for 48 h. HRM cells, a normal cell line, were included as a control for comparative analysis. […]
(§1) CCK8 assay was used to measure cell viability. Cells with a density of 1 × 10^4 cells/well were seeded on 96-well plates. After adhesion, cells were treated with different diluted compounds or vehicle control DMSO and continued to be cultured for 48 h or 72 h, respectively. Then, CCK8 reagent was added for one hour incubation at 37 °C with 5% CO2. Absorbance was measured using a Microplate spectrophotometer (Thermo, Waltham, MA, USA) at 450 nm. The ratio of cell viability of control was taken as 100%. […] Then, IC50 of compounds were investigated using the prism statistical software 7.0.

[1] = dose 27 times greater than the clinical dose, preclinical study; cited from earlier work
hepG2 cells = test: CCK8 cell viability assay, hepG2; assay type: cell-based, human; settings: Homo sapiens
Method: (§2) This study aimed to assess the anti-proliferative activity of dolutegravir-1,2,3-triazole derivatives on hepatocellular carcinoma cell lines, Huh7 and hepG2. A comprehensive CCK8 assay was employed to evaluate the impact of these compounds on cell viability, with cells treated at a concentration of 20 μM for 48 h. HRM cells, a normal cell line, were included as a control for comparative analysis.
(§3) Human hepatocellular carcinoma cell lines Huh7 and hepG2 were obtained from ATCC (Manassas, VA, USA). Cells were cultured in DMEM or RPMI 1640 medium containing 10% FBS and 1% penicillin/streptomycin at 37 °C with a 5% CO2-humidified atmosphere.
as §1

Huh7 cells = test: CCK8 cell viability assay, Huh7; assay type: cell-based, human; settings: Homo sapiens, Huh-7, 48 h
Method: as §2, §3, §1

pIC50 (hepG2 cells; HepG2, 48 h, hepG2, CCK8, read-out: half maximal inhibitory concentration (IC50), hepG2): < 4.30
pIC50 (Huh7 cells; Huh7, CCK8, read-out: half maximal inhibitory concentration (IC50), Huh7): < 4.30
SMILES: C[C@@H]1CCO[C@H]2Cn3cc(C(=O)NCc4ccc(F)cc4F)c(=O)c(O)c3C(=O)N12 [DTG, Dolutegravir]
viability at 48 h, 20 µM (in vitro): 99.6%
fertility and teratogenic toxicity [1]: no obvious fertility toxicity or teratogenic toxicity
viability at 20 µM (hepG2 cells; 20 μM, 48 h, hepG2, CCK8, control taken as 100%): 82.6%
viability at 20 µM (Huh7 cells; 20 μM, Huh7, CCK8, control taken as 100%): 96.9%
